Like-named read-outs stand apart in the source and are kept apart here.
How the values were obtained:
[1] = cited from earlier work
mushroom tyrosinase = mushroom tyrosinase activity assay (L-DOPA substrate); type: biochemical; conditions: mean ± SEM
Description: The procedure for the mushroom tyrosinase activity assay was conducted in accordance with the methodology described in a previous report. […] In a 96-well plate, 40 μL of mushroom tyrosinase (5 U/μL, Sigma Aldrich, St. Louis, MO, USA) was added to each well, followed by 50 μL of the test compound at various concentrations. After that, 10 μL of 50 mM L-DOPA (purity ≥98%, Sigma-Aldrich, St. Louis, MO, USA) were added and incubated in darkness at 37 °C for 15 min. Finally, the absorbance was measured at 450 nm. The experiment was conducted in triplicate. IC50 values were determined using GraphPad Prism 10.2.2 software.

[2] = tested on: B16F10 murine melanoma cells; assay: melanin assay in α-MSH-stimulated cells; type: cell-based
Description: Melanin production was assessed according to the methodology outlined in a previous study. B16F10 cells were cultured in 6-well plates at a density of 100,000 cells per well. After overnight incubation, the cells were treated with different concentrations of the test compound for 48 h. Note that 1 μM of α-melanocyte-stimulating hormone (α-MSH) (Sigma Aldrich, St. Louis, MO, USA) was used to induce melanin synthesis. Following treatment, the cells were washed twice with PBS, detached using trypsin/EDTA, and centrifuged at 3,000×g for 5 min. The resulting cell pellets, containing approximately 700,000 cells, were solubilised in 2 M NaOH and heated at 100 °C for 30 min. Melanin content was quantified by measuring absorbance at 405 nm.

[3] = copper-chelating activity assay (pyrocatechol violet); conditions: 5 mM
Description: The copper-chelating activity of compound 4 was assessed using previously reported protocol[44] with minor modifications. […] After that, the absorbance of each well was measured at 620 nm. The copper-chelating activity was calculated using the formula: Copper-chelating activity (%) = [(Acon – Asam)/Acon] × 100, where Acon and Asam are the absorbance of the control and test sample, respectively.

cytotoxicity MTT assay = type: cell-based, murine; conditions: mouse, B16F10 melanoma cells, read-out: cell viability
Description: Cell viability was determined using the MTT assay (3-(4,5-dimethylthiazol-2-yl)-2,5-diphenyltetrazolium bromide). B16F10 (murine melanoma cell line) was purchased from American Type Culture Collection (ATCC, Manassas, VA, USA). B16F10 cells were seeded into 96-well plates at a density of 1500 cells per well. After overnight incubation, the cells were treated with different concentrations of the test compound for 48 h. Following this, MTT reagent was added to each well and incubated for 3 h. The culture medium was then removed, and 100 μL of DMSO was used to dissolve the formazan crystals. Absorbance was measured at 540 nm to evaluate cell viability.

tyrosinase = conditions: cited from earlier work

In the case of `S=C1NCCCc2occc21` [Compound T4FAT, 5,6,7,8-tetrahydro-4H-furo[3,2-c]azepine-4-thione], the copper ions chelated ([1]; 200 mM ref 63) is given as “more than 80%”.

For `Sc1nc2ccccc2s1` [Compound 2-TBT, 2-thiobenzothiazole], the Copper-chelating activity [1] is listed as 48% to 69.

In the case of `S=C(NCc1ccc(CNC(=S)Nc2ccc(Cl)cc2)cc1)Nc1ccc(Cl)cc1` [Compound 4], the IC50 (mushroom tyrosinase) is reported as 61.6 ± 7.82 µM, the melanin production ([2]; 10 and 30 μM, 48 h, α-MSH (1 μM)-treated B16F10, vs α-MSH group) is reported as “significantly inhibited melanin production” and the “anti-melanogenic activity compared to KA” value ([2]; α-MSH-stimulated B16F10, approximately) is reported as 30–100 times. For the same compound, the Copper-chelating activity [3] was 64%, the viability at 48 h, 1 µM (cytotoxicity MTT assay; 1 μM) was roughly 90% and the viability at 48 h, 3 µM (cytotoxicity MTT assay; 3 μM) was roughly 90%. The viability at 48 h, 10 µM (cytotoxicity MTT assay; 10 μM) was roughly 75%, the viability at 48 h, 30 µM (cytotoxicity MTT assay; 30 μM) was roughly 50% and the viability at 48 h, 100 µM (cytotoxicity MTT assay; 100 μM) was less than 40%.

With `O=c1cc(CO)occ1O` [KA, kojic acid] the melanin content ([2]; 1000 μM, 48 h, α-MSH-stimulated B16F10, vs α-MSH group) was “reduced melanin content significantly” and the Copper-chelating activity [3] was 75%.

For `N=C(N)NN=C1C=CC(=NNC(N)=S)C=C1` [ambazone], the IC50 (tyrosinase) is given as 15 µM.

For `O=C(O)CN(CCN(CC(=O)O)CC(=O)O)CC(=O)O` [EDTA, ethylenediaminetetraacetic acid], the Copper-chelating activity [3] was 95%.

In the case of `CC1(C)C=Cc2c(O)ccc(C3=Cc4ccc(O)cc4OC3)c2O1` [glabrene], the IC50 (tyrosinase) is listed as 7600 µM.

In the case of `CC(=O)Nc1ccc(/C=N/NC(N)=S)cc1` [thioacetazone], the IC50 (tyrosinase) is given as 14 µM.

In the case of `C[C@@H]1[C@H](O)[C@@H](C)/C=C/C=C/C=C/C=C/C=C/C=C/C=C/[C@H](O[C@@H]2O[C@H](C)[C@@H](O)[C@H](N)[C@@H]2O)C[C@@H]2O[C@](O)(C[C@@H](O)C[C@@H](O)[C@H](O)CC[C@@H](O)C[C@@H](O)CC(=O)O[C@H]1C)C[C@H](O)[C@H]2C(=O)O` [amphotericin B], the IC50 (tyrosinase) is given as 263 ± 11.8 µM.

— publication PMC12897533, “Discovery of bis-thiourea derivatives as potent tyrosinase inhibitors: combined experimental and computational study” (Journal of Enzyme Inhibition and Medicinal Chemistry, 2025)
